Assay results published in PubChem BioAssay AID2305 (GlaxoSmithKline (GSK), 2010).

Test system: P. falciparum 3D7 growth, pLDH absorbance
Experiment: blood-stage malaria parasite growth potency – strain 3D7, dose response (AID 2305)

Row | Compound | IC50 [nM]
1 | COc1cccc(OC)c1CN1CCC(N(C)CCCCCCCCCN2CCC(OC(=O)Nc3ccccc3-c3ccccc3)CC2)CC1 | 320
2 | CN(C)c1ccc(CN2CCC(CNC(=O)c3cc(-c4cccc(F)c4)cs3)C2)cc1 (stereo unspecified) | 1020
3 | CN1CCC(N(Cc2ccc(-c3ccc(C(F)(F)F)cc3)nc2)C(=O)Cn2c(CCc3cccc(F)c3F)cc(=O)c3ccccc32)CC1 | 1100
4 | CC(C)(C)Oc1ccc(CC2NC3(C(=O)N(Cc4ccc(C(C)(C)C)cc4)c4ccccc43)C3C(=O)N(c4ccc(Br)cc4)C(=O)C23)cc1 (stereo unspecified) | 720
5 | CC(=O)Nc1ccc(NC(=O)c2cc(-c3cc(Cl)ccc3O)n[nH]2)cc1 | 180
6 | Nc1cccc(CNCc2cccc(-c3csc(-c4nc5ccccc5[nH]4)c3)c2)c1 | 680
7 | O=C(NCc1ccccc1)NC(CCCN1CCC(Oc2cccc(Cl)c2)CC1)c1ccc(Cl)c(Cl)c1 (stereo unspecified) | 860
8 | Cc1ccc(CC(C)NCC(O)c2cccc(C(F)(F)F)c2)cc1F (stereo unspecified) | 920
9 | C[C@H](Cc1ccc(OCCNC[C@H](O)c2cccc(Cl)c2)cc1)NC[C@H](O)c1ccc(Cl)c(Cl)c1 | 960
10 | COc1cc2c(cc1C(F)(F)F)N(C(=O)Nc1cc(-c3ccncc3)cc(-c3cccnc3)c1)CC2 | 620
11 | COC(=O)c1cc(C(O)CNC(C)CCc2cccc(F)c2)ccc1O (stereo unspecified) | 1180
12 | Cc1ccc2[nH]c3ccccc3c(=O)c2c1 | 860
13 | O=C(NCc1ccccc1)c1nn(CCCN2CCC3(CC2)C(=O)NCN3c2ccccc2)cc1-c1ccc(Cl)c(Cl)c1 | 1050
14 | COc1ccc(N2CCN(CCCCNC(=O)c3ccc(NC(=O)c4cc(C(F)(F)F)cc(C(F)(F)F)c4)cc3)CC2)c(OC)c1 | 150
15 | Cc1ccc(O)cc1Nc1ccnc2ccc(-c3cccc(CNCCN(C)C)c3)cc12 | 610
16 | COc1ccc(NS(=O)(=O)c2ccc(C(=O)Nc3ccc(C(F)(F)F)cc3)cc2)cc1N1CCN(CC2CC2)CC1 | 830
17 | NC[C@H](CC1CCCCC1)NC(=O)c1ccc(-c2ccnc3[nH]ccc23)s1 | 950
18 | CCOc1ccc(CN(CCc2ccc3c(c2)OCO3)Cc2cc(OC)ccc2O)cc1 | 750
19 | COc1cc(C=NNc2cc(C)nc3c(OC)cccc23)cc(OC)c1OC | 890
20 | CCOC(=O)C(C(=O)OCC)c1nc(C)ns1 | 470
21 | c1cc(-c2ccc(CNCCc3ccncc3)cc2)cc(-c2nc3ccccc3[nH]2)c1 | 140
22 | CC(C)N1CCN(C(CN2CCN(CCCOc3ccc4ccccc4c3)CC2)c2ccc(F)cc2)CC1 (stereo unspecified) | 580
23 | CC(Oc1ccc(Cl)cc1)C(=O)N(C)C1CCN(CCCCCNC(=O)/C=C/c2ccc(Cl)c(Cl)c2)CC1 (stereo unspecified) | 960
24 | CN(Cc1cccc(C#N)c1)C1CCN(c2cc(NC(=O)c3ccc(F)cc3)ccn2)CC1 | 1070

Row | Compound | IC50 [nM]
25 | O=C(Nc1ccccc1)N(Cc1ccc(-c2cccc(CNCc3ccc4c(c3)OCO4)c2)cc1)C1CCN(Cc2ccccc2)CC1 | 280
26 | Cc1ccc(-c2noc(COc3ccccc3C(=O)NC3CCCC3)n2)cc1 | 880
27 | CCC(CN1C(=O)C(c2ccccc2)(c2ccccc2)N=C1N)c1ccccc1 (stereo unspecified) | 140
28 | CC(C)CCN1CCC(Oc2ccc(NC(=O)c3ccc4ncccc4c3)cc2Cl)C1 (stereo unspecified) | 970
29 | CC(C)Nc1nc(NCCc2cnc[nH]2)nc(NCc2ccc(Cl)c(Cl)c2)n1 | 960
30 | CN(C)C(=O)c1ccc(CN(Cc2ccc3c(c2)OCCO3)Cc2ccc3c(c2)OCO3)cc1 | 180
31 | CN1CCCN(c2ccnc3cc4c(cc23)N(C(=O)c2ccc(Cl)cc2Cl)CC4)CC1 | 810
32 | CC(C)Oc1cccc(-c2ccc(C(=O)NCC3CCCN(Cc4cccc(C(F)(F)F)c4)C3)s2)c1 (stereo unspecified) | 1080
33 | O=C(Nc1ccc(-c2oc(C(=O)NCCc3cccc(Cl)c3)cc2-c2ccncc2)cc1)Nc1cccc(Cl)c1 | 720
34 | O=c1cc(NCCCNCc2ccc3c(c2)OC(F)(F)O3)[nH]c2ccccc12 | 770
35 | Cc1cc(Nc2ccc3c(c2)CCC3)n2ncnc2n1 | 970
36 | Clc1cc2c(Nc3ccc(Oc4ccccc4)cc3)ccnc2cc1-c1ccc(CNCCN2CCOCC2)o1 | 710
37 | CC(Cc1ccc(OCCCCOc2ccccc2)cc1)NCCCn1ccnc1 (stereo unspecified) | 170
38 | Cc1ccccc1C1CCN(c2ccc(C(=O)Nc3ccccc3)cn2)CC1 | 330
39 | c1ccc(Oc2ccc(Nc3ccnc4ccc(-c5ccccn5)cc34)cc2)cc1 | 1100
40 | COc1ccc(C(=O)NCc2ccc(N)nc2C)cc1Nc1ncc(-c2cccc(N(C)C)c2)cn1 | 900
41 | CS(=O)(=O)c1ccc(CNCc2cccc(-c3cccc(-c4nc5ccccc5[nH]4)c3)c2)cc1 | 590
42 | COC(=O)Cn1c(C2CCN(CC3CCC(NC(=O)/C=C/c4ccc(Cl)c(Cl)c4)CC3)CC2)nc2ccccc21 (stereo unspecified) | 1140
43 | O=C(NCCCCN1CCC(c2ccc3ccccc3c2O)CC1)c1ccc(-c2ccc(Cl)cc2)cc1 | 180
44 | CC(C)NCc1ccc(-c2cccc(-c3nc4ccc(C(F)(F)F)cc4[nH]3)c2)cc1 | 260
45 | N=C(N)c1cc(Cl)cc(NC(=O)Nc2cc(Cl)cc(C(=N)N)c2)c1 | 720
46 | CC(C)(C)c1ccc(NC(=O)c2ccc(CN3CCCN(Cc4ccsc4)CC3)cc2)cc1 | 720
47 | CCOc1cc(C2C(C(=O)OC(C)C)=C(C)NC3=C2C(=O)CC(c2ccc(Cl)cc2)C3)ccc1OC(C)=O (stereo unspecified) | 930
48 | O=C(NCc1ccc2c(c1)OCO2)c1nn(CCN2CCC(N3CCCC3)CC2)cc1-c1ccc(Cl)c(Cl)c1 | 940

Row | Compound | IC50 [nM]
49 | CN(CCO)Cc1ccc(-c2ccc(NS(=O)(=O)c3cccc4cccnc34)cc2)cc1 | 790
50 | O=C(N[C@@H](Cc1ccccc1)CN1CCC(Oc2ccc(F)cc2)CC1)c1ccc(OCCCN2CCCCC2)cc1 | 890
51 | O=C(/C=C/c1ccc(Cl)c(Cl)c1)NCCCCCN1CCC(NC(=O)Nc2ccc(Cl)cc2Cl)CC1 | 640
52 | CC(=O)Nc1nc(C(=O)Nc2cccc(-c3cccc(-c4nc5c(C)cccc5[nH]4)c3)c2)cs1 | 110
53 | CC(C)(C)c1ccc(-c2ccccc2CNC(=O)c2cccc(O)c2)cc1 | 270
54 | Cc1cccc(NC(c2cccs2)c2c(NC(=O)c3ccccc3)sc(C)c2C)n1 (stereo unspecified) | 830
55 | Cc1[nH]c(C)c(-c2ccc(OCc3ccccc3)cc2)c(=O)c1Br | 280
56 | COc1ccc2nccc(NC(=O)C3CCC(NCc4ccc5c(c4)NC(=O)CS5)CC3)c2c1 (stereo unspecified) | 590
57 | Cc1[nH]c(C)c(-c2ccc(CCc3cccc(C(F)(F)F)c3)nc2)c(=O)c1Cl | 100
58 | S=C(NCCCCCN1CCC(c2c[nH]c3ccccc23)CC1)Nc1cccc(I)c1 | 840
59 | O=C(NC1CCN(c2ccc(F)cc2[N+](=O)[O-])CC1)c1cccs1 | 670
60 | COc1cc2c(cc1OCCN1CCC(N3CCCCC3)CC1)N(C(=O)/C=C/c1ccccc1Cl)CC2 | 280
61 | CN1CCN(CCCN(Cc2cccc(-c3ccc(CNC4CCCC4)cc3)c2)C(=O)/C=C/c2ccccc2)CC1 | 750
62 | Cc1ccc(C(=O)NC2CCN(CCNC(=O)Nc3cc(C)nc4ccccc34)CC2)cc1 | 490
63 | COC(=O)c1ccc(CN2CCC(N(Cc3cccc(Oc4ccccc4)c3)S(=O)(=O)c3ccc(NC(C)=O)cc3)CC2)cc1 | 1050
64 | CC(CCNc1c2ccccc2nc2ccccc12)N1CCN(C)CC1 (stereo unspecified) | 800
65 | O=[N+]([O-])c1ccc(C=NNc2nc(Nc3ccccc3)nc(Nc3ccccc3)n2)o1 | 840
66 | CC[C@H]1CN2CC[C@H]1C[C@H]2[C@H](O)c1cc(Cl)nc2ccc(OC)cc12 | 580
67 | Cc1[nH]c(C)c(-c2ccc(Oc3ccc(F)cc3)cc2)c(=O)c1Cl | 50
68 | CC1(C)N=C(N)N=C(N)N1OCCSCCON1C(N)=NC(N)=NC1(C)C | 50
69 | CC(=O)Nc1nc(C(=O)Nc2cccc(-c3ccc4c(cnn4CC4CC4)c3)c2)cs1 | 740
70 | CC(NC(=O)c1ccc(O)c(-c2ccc(Cl)c(Cl)c2)c1)C(=O)NCCN1CCCCC1 (stereo unspecified) | 870
71 | NC(N)=NC(=O)Nc1cc(Cl)c(Cl)c(C(F)(F)F)c1 | 610
72 | COc1ccc2ccccc2c1CNCCCCCCNCc1c(OC)ccc2ccccc12 | 710

Row | Compound | IC50 [nM]
73 | CCCC(=O)Nc1ccc(OCCCCN(Cc2ccccc2C(F)(F)F)c2ccc(C(F)(F)F)c(C#N)c2)cc1 | 970
74 | CCCCCCC(C)c1cc(OCCN(CC)CC)c2c(c1)OC(C)(C)C=C2c1ccncc1 (stereo unspecified) | 1260
75 | c1cc(COc2ccc(C3=NCCN3)cc2)nc(COc2ccc(C3=NCCN3)cc2)c1 | 150
76 | Cc1nc2nc(N)nc(N)c2c(C)c1Cc1ccc(C#N)cc1 | 540
77 | COc1ccc(Nc2ncc3c(-c4cccc(NC(=O)CC(C)C)c4)c[nH]c3n2)cc1OC | 830
78 | COc1ccc(-c2cccc(NC(=O)c3ccc(C#N)cc3)c2)cc1CN1CCCC1 | 700
79 | Cc1ccc(S(=O)(=O)n2cc(-c3ccnc(N)c3)c3cc(Br)cnc32)cc1 | 900
80 | CC(C)[C@H](NC(=O)c1ccc(O)c(-c2ccc(Cl)c(Cl)c2)c1)C(=O)NCCN1CCOCC1 | 910
81 | CCOc1ccc(Nc2cc(C)nc(Nc3ccc(OCC)cc3)n2)cc1 | 870
82 | N=c1n(CCN2CCCCC2)c2ccccc2n1CC(O)c1ccc(Cl)c(Cl)c1 (stereo unspecified) | 320
83 | CC(C)(C)c1ccc(N2C(N)=NC(N)=NC2(C)C)cc1Cl | 10
84 | CCc1nc2nc(C)cc(Nc3cc(C)cc(C)c3)n2n1 | 290
85 | Oc1ccc2[nH]c(-c3cccs3)nc2c1CN1CCC(N2CCCC2)CC1 | 640
86 | CCC(CC)(Cc1ccccc1)NC(=O)[C@H](CC(C)C)Nc1ccc(C#N)c2ccccc12 | 910
87 | O=C(c1cc(-c2ccco2)[nH]n1)N1CCN(S(=O)(=O)c2ccc(Br)cc2)CC1 | 500
88 | CC(C)C[C@@H]1C(=O)N[C@H](C2Cc3ccccc3C2)C(=O)N1[C@@H](C(=O)O)c1ccc(F)cc1F | 840
89 | CC(C)(CNC(=O)C1CCN(CC2CCCCC2)CC1)c1nc(-c2ccc(Cl)c(O)c2)c(-c2ccncc2)[nH]1 | 890
90 | CC(C)(C)c1nn(-c2ccc(Cl)cc2)c2[nH]c(=O)c(CNCc3ccc4c(c3)OCO4)cc12 | 810
91 | O=C(/C=C/c1ccc(Cl)c(Cl)c1)NCCCCCN1CCC(NC(=O)Nc2cccc(C(F)(F)F)c2)CC1 | 700
92 | CCCCCCCCn1c2c(c(=N)c3c1CCC3)CCC2 | 220
93 | CN(C)CCCOC(=O)c1cc2cc(-c3ccccc3)ccc2n1S(=O)(=O)Cc1ccccc1 | 360
94 | C/C=C1\CN2CC[C@H]1C[C@@H]2[C@@H](O)c1ccnc2ccc(O)cc12 | 250
95 | CC1(C)CC(NC(=O)NC2CCN(Cc3ccccc3)CC2)CC(C)(CNC(=O)NC2CCN(Cc3ccccc3)CC2)C1 (stereo unspecified) | 950
96 | Cc1ccc(CN2CCN(Cc3cccc(NC(=O)c4cccs4)c3)CC2)cc1C | 1030
